Earlier results in patent US20110190220A1, “Use of Defensin Alpha 1 and/or Defensin Alpha 4, as a Marker for Predicting Treatment Response and/or a Relapse in a Patient Suffering form Chronic Myeloid Leukemia” (priority 2008, published 2011).
Where a name gives a salt, the structure may show the parent alone.

System: CML patients

## Cc1ccc(NC(=O)c2ccc(CN3CCN(C)CC3)cc2)cc1Nc1nccc(-c2cccnc2)n1 [Imatinib, Imatinib mesylate]
CML patients treated in chronic phase
  complete or nearly complete cytogenetic remission, share of patients: up to 80%
CML patients treated with imatinib
  CML patients who are or become resistant to treatment: about 20%
